Values joined by “and” are separate entries in the source; they are usually repeats but may differ in a detail not shown here. Identical values can stand only once. “Also recorded” adds a separate entry of the source. Residues, ends and D or L forms follow the SMILES beside them. *: point of attachment. Cbz = O=C(OCc1ccccc1)*; CH2F = FC*
Legend:
[1] = tested on: RAW 264.7 cells; type: cell-based, mouse
[2] = tested on: B. anthracis spores; conditions: in vivo
[3] = tested on: human PBMCs infected with anthrax (Sterne) spores; type: cell-based
[4] = tested on: anthrax (Sterne) spores; parameters: species or system B. anthracis
[5] = tested on: B. anthracis spores; conditions: in vivo; remark: listed apart in the source
[6] = tested on: RAW 264.7 cells infected with anthrax (Sterne) spores; type: cell-based, mouse
[7] = tested on: RAW 264.7 cells; type: cell-based, mouse; remark: listed apart in the source
[8] = tested on: RAW 264.7 cells; type: cell-based, mouse; conditions: 4 h
[9] = tested on: human peripheral blood monocytes / PBMCs; type: cell-based
[10] = mouse, in vivo, ip; cited from earlier work
[11] = tested on: Fas expression in RAW 264.7 cells; type: cell-based, mouse
[12] = tested on: RAW 264.7 cells; type: cell-based, mouse; remark: listed apart in the source
[13] = tested on: RAW 264.7 cells; type: cell-based, mouse; remark: listed apart in the source
[14] = tested on: RAW 264.7 cells; type: cell-based, mouse; remark: listed apart in the source

Molecule: COc1cccc(-c2cc(=O)c3ccccc3o2)c1N [PD 98059]
- antitoxin effect (cell survival, MTT) [1]: did not display an antitoxin effect; also recorded: do not increase cell survival; also recorded: none of these inhibitors increased cell survival

Molecule: C[S+]([O-])c1ccc(-c2nc(-c3ccncc3)c(-c3ccc(F)cc3)[nH]2)cc1 (stereo not drawn) [SB 203580]
- antitoxin effect (cell survival, MTT) [1]: not able to decrease the effect of LeTx; also recorded: do not increase cell survival; also recorded: none of these inhibitors increased cell survival

Molecule: COC(=O)C[C@H](NC(=O)[C@H](C)NC(=O)[C@@H](NC(=O)OCc1ccccc1)C(C)C)C(=O)CF [Z-VAD-fmk, benzyloxycarbonyl-Val-Ala-Asp-fluoromethylketone] (Cbz-Val-Ala-Asp(OMe)-CH2F)
- survival of mice [2]: dead by 11 days
- mice alive by day 15 ([2]; ip): 20%
- mice survived by day 15 ([2]; ip): 20% and 10%

Molecule: CO/C1=C\C(C)=C\[C@@H](C)[C@@H](O)[C@@H](C)C/C(C)=C/C=C/[C@H](OC)[C@@H]([C@@H](C)[C@@H](O)[C@H](C)[C@@]2(O)C[C@@H](O)[C@H](C)[C@@H](C(C)C)O2)OC1=O [bafilomycin A1]
- survival of mice [2]: dead by 11 days

Molecule: CC(C)C[C@H](NC(=O)[C@@H](O)[C@H](N)Cc1ccccc1)C(=O)O [bestatin]
- killing (bactericidal) activity of human PBMCs [3]: increased in a concentration dependent manner; also recorded: restores a bactericidal activity
- intrinsic antibiotic activity [4]: undetectable
- survival of mice [2]: dead by 11 days
- mice dead by day 9 [5]: more than 30%
- bactericidal activity of Raw 264.7 cells [6]: restores a bactericidal activity

Molecule: CCN(CC)CCCC(C)Nc1ccnc2cc(Cl)ccc12 (stereo not drawn) [chloroquine]
- survival of mice [2]: dead by 11 days

Molecule: O=C(O)c1cn(C2CC2)c2cc(N3CCNCC3)c(F)cc2c1=O [ciprofloxacin]
- mice alive after 11 days [2]: 100%
- mice survived at least 14 days [2]: 100%
- protection of mice (FIG. 29) [2]: complete protection
- survival (FIG. 29) [2]: 10%
- mice alive after 15 days [5]: approximately 50%
- survival of mice by day 12 [5]: 50%

Molecule: COC(=O)CC[C@H](NC(=O)[C@H](Cc1c[nH]c2ccccc12)NC(=O)OCc1ccccc1)C(=O)N[C@@H](Cc1cnc[nH]1)C(=O)N[C@@H](CC(=O)OC)C(=O)CF [inhibitor of caspase 1, Z-WEHD-FMK] (Cbz-WE(OMe)HD(OMe)-CH2F)
- protection of cells against LeTx (membrane permeability staining) [7]: different degree of protection

Molecule: COC(=O)C[C@H](NC(=O)[C@H](C)NC(=O)[C@@H](NC(=O)[C@H](CC(=O)OC)NC(=O)[C@@H](NC(=O)OCc1ccccc1)C(C)C)C(C)C)C(=O)CF [inhibitor of caspase 2, Z-VDVAD-FMK] (Cbz-VD(OMe)VAD(OMe)-CH2F)
- protection of cells against LeTx (membrane permeability staining) [7]: different degree of protection

Molecule: COC(=O)CC[C@H](NC(=O)[C@H](CC(=O)OC)NC(=O)OCc1ccccc1)C(=O)N[C@H](C(=O)N[C@@H](CC(=O)OC)C(=O)CF)C(C)C [inhibitor of caspase 3, Z-DEVD-FMK]
- protection of cells against LeTx (membrane permeability staining) [7]: different degree of protection

Molecule: CC[C@H](C)[C@H](NC(=O)[C@H](CCC(=O)OC)NC(=O)[C@@H](NC(=O)OCc1ccccc1)C(C)C)C(=O)N[C@@H](CC(=O)OC)C(=O)CF [inhibitor of caspase 6, Z-VEID-FMK] (Cbz-VE(OMe)ID(OMe)-CH2F)
- protection of cells against LeTx (membrane permeability staining) [7]: most active

Molecule: CC[C@H](C)[C@H](NC(=O)OCc1ccccc1)C(=O)N[C@@H](CCC(=O)OC)C(=O)N[C@H](C(=O)N[C@@H](CC(=O)OC)C(=O)CF)[C@@H](C)O [inhibitor of caspase 8, Z-IETD-FMK] (Cbz-IE(OMe)TD(OMe)-CH2F)
- protection of cells against LeTx (membrane permeability staining) [7]: most active

Molecule: COC(=O)CC[C@H](NC(=O)[C@H](CC(C)C)NC(=O)OCc1ccccc1)C(=O)N[C@@H](Cc1cnc[nH]1)C(=O)N[C@@H](CC(=O)OC)C(=O)CF [inhibitor of caspase-9, Z-LEHD-FMK] (Cbz-LE(OMe)HD(OMe)-CH2F)
- protection of cells against LeTx (membrane permeability staining) [7]: unable to protect

Molecule: NC[C@@H]1O[C@H](O[C@H]2[C@@H](O)[C@H](O[C@@H]3[C@@H](O)[C@H](N)C[C@H](N)[C@H]3O[C@H]3O[C@H](CN)[C@@H](O)[C@H](O)[C@H]3N)O[C@@H]2CO)[C@H](N)[C@@H](O)[C@@H]1O [neomycin]
- mice alive after 11 days [2]: 100%
- survival of mice after 10 days [5]: less than 20%

Molecule: CN[C@@H]1C[C@H]2O[C@@](C)([C@@H]1OC)n1c3ccccc3c3c4c(c5c6ccccc6n2c5c31)C(=O)NC4 [staurosporine]
- mitochondrial transmembrane potential (JC-1 staining) [8]: JC-1 staining changes similar to LeTx
- fluorescence pattern (YO-PRO-1) of human monocytes [9]: fluorescence pattern typical of apoptotic cells

Molecule: COc1ccc(CCN(C)CCCC(C#N)(c2ccc(OC)c(OC)c2)C(C)C)cc1OC (stereo not drawn) [verapamil]
- survival of mice [2]: dead by 11 days

Molecule: GM-CSF: recombinant murine granulocyte-macrophage colony stimulating factor
- toxicity in mice [10]: No toxicity
- Fas expression after stimulation with cytokine [11]: greatly increased
- mice survived after 24 days ([2]; ip): 20%
- effect of murine cytokine on cell lysis by LeTx [12]: increased cell survival
- overall cell survival and relative number of apoptotic cells in presence of LeTx [13]: substantially increased
- prevention of LeTx-induced apoptosis [13]: incapable of preventing apoptosis completely
- protection of Raw 264.7 cells from LeTx [13]: partially protected

Molecule: IL-6: cytokine
- cell viability relative to cells treated with toxin only (MTT) [14]: increased cell viability

Molecule: TNF-α
- Fas expression after stimulation with cytokine [11]: greatly increased
- effect of murine cytokine on cell lysis by LeTx [12]: greatly increased cell lysis

Molecule: Z-YVAD [inhibitor of caspase 4]
- protection of cells against LeTx (membrane permeability staining) [7]: most active

Molecule: trypsin
- survival of mice [2]: dead by 11 days

B1: IL-12: murine interleukin-12 (protein, UniProt P29459 23-219; P29460 23-328, looked up)
Interleukin-12 subunit alpha: RNLPVATPDPGMFPCLHHSQNLLRAVSNMLQKARQTLEFYPCTSEEIDHEDITKDKTSTVEACLPLELTKNESCLNSRETSFITNGSCLASRKTSFMMALCLSSIYEDLKMYQVEFKTMNAKLLMDPKRQIFLDQNMLAVIDELMQALNFNSETVPQKSSLEEPDFYKTKIKLCILLHAFRIRAVTIDRVMSYLNAS
Interleukin-12 subunit beta: IWELKKDVYVVELDWYPDAPGEMVVLTCDTPEEDGITWTLDQSSEVLGSGKTLTIQVKEFGDAGQYTCHKGGEVLSHSLLLLHKKEDGIWSTDILKDQKEPKNKTFLRCEAKNYSGRFTCWWLTTISTDLTFSVKSSRGSSDPQGVTCGAATLSAERVRGDNKEYEYSVECQEDSACPAAEESLPIEVMVDAVHKLKYENYTSSFFIRDIIKPDPPKNLQLKPLKNSRQVEVSWEYPDTWSTPHSYFSLTFCVQVQGKSKREKKDRVFTDKTSATVICRKNASISVRAQDRYYSSSWSEWASVPCS
- effect of murine cytokine on cell lysis by LeTx [12]: without effect

B2: IL-4: cytokine (protein, UniProt P05112 25-153, looked up)
Interleukin-4: HKCDITLQEIIKTLNSLTEQKTLCTELTVTDIFAASKNTTEKETFCRAATVLRQFYSHHEKDTRCLGATAQQFHRHKQLIRFLKRLDRNLWGLAGLNSCPVKEANQSTLENFLERLKTIMREKYSKCSS
- cell viability relative to cells treated with toxin only (MTT) [14]: increased cell viability

B3: IFN-γ: recombinant mouse interferon-gamma (protein, UniProt P01579 24-161, looked up)
Interferon gamma: QDPYVKEAENLKKYFNAGHSDVADNGTLFLGILKNWKEESDRKIMQSQIVSFYFKLFKNFKDDQSIQKSVETIKEDMNVKFFNSNKKKRDDFEKLTNYSVTDLNVQRKAIHELIQVMAELSPAAKTGKRKRSQMLFRG
- Fas expression after stimulation with cytokine [11]: greatly increased
- effect of murine cytokine on cell lysis by LeTx [12]: increased cell susceptibility to lysis

From US20030224403A1 (priority 2002, published 2003)
